Laboratory results reported in ChEMBL document CHEMBL1145944, “Synthesis and biological evaluation of 3-(4-substituted-phenyl)-N-hydroxy-2-propenamides, a new class of histone deacetylase inhibitors” (J Med Chem, 2003).

Experiments:
Format in all cases: functional, cell-based
[1] = test system: A549; experiment: Compound was tested for antiproliferative activity against human A549 cancer cell lines using MTT assay
[2] = test system: MKN-45; experiment: Compound was tested for antiproliferative activity against human MKN45 cancer cell lines
[3] = test system: SK-BR-3; experiment: Compound was tested for antiproliferative activity against human SK-BR-3 cancer cell lines

Row | Structure (SMILES) | IC50 [1] | IC50 [2] | IC50 [3]
1 | O=C(/C=C/C#Cc1ccc(NS(=O)(=O)c2ccccc2)cc1)NO [OXAMFLATIN] | 840 nM | 1070 nM | 590 nM
2 | O=C(/C=C/c1ccc(CNC(=O)c2ccc(N3CCN(Cc4ccccn4)CC3)cc2)cc1)NO | 12000 nM | 38600 nM | 3190 nM
3 | O=C(/C=C/c1ccc(CNC(=O)c2ccc(N3CCN(Cc4cccnc4)CC3)cc2)cc1)NO | 1650 nM | 2940 nM | 270 nM
4 | O=C(/C=C/c1ccc(CNC(=O)c2ccc(N3CCN(Cc4ccncc4)CC3)cc2)cc1)NO | 3020 nM | 56000 nM | 1720 nM
